{
  "source": "paper PMC9820303",
  "about": "“^αN-Acetyl β-Endorphin Is an Endogenous Ligand of σ1Rs That Regulates Mu-Opioid Receptor Signaling by Exchanging G Proteins for σ2Rs in σ1R Oligomers” (International Journal of Molecular Sciences, 2022)",
  "key": {"σ1R-NR1 C1": {"molecular_target": "T1, σ1R-NR1 C1 (Mus musculus, UniProt O55242)", "T1 construct": "The coding region of the full-length murine σ1R (AF004927); GST (N, cleaved yes); made in house; host or cells: E. coli BL21 (KRX)", "T1 sequence (O55242 whole entry)": "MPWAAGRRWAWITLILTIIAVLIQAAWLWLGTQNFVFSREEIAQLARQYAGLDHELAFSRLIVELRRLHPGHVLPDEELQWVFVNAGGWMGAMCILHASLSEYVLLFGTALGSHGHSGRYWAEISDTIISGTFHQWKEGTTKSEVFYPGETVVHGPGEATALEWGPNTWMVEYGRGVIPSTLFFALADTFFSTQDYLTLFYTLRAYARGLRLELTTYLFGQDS", "assay": "In vitro σ1R-NR1 C1 association of recombinant proteins (Western blot)", "type": "biochemical, murine", "conditions": "increasing concentrations; 30 min RT; vs control without ligand", "experimental": "Figure 7 Effect of β-End 1–31, ^αN-acetyl β-End 1–31 and their N-terminal derivatives on σ1R-σ2R, σ1R-NR1 C1 and σ1R-BiP associations. Amino acid sequence of β-End 1–31 showing derivatives 1–26 and 1–27. (A) HaloLink-attached σ2Rs were incubated for 30 min at RT in the presence of σ1Rs (100 nM) in 300 μL of 50 mM Tris-HCl (pH 7.4), 0.2% CHAPS, and 2.5 mM CaCl2. After removing the unbound σ1R proteins, the effects of increasing the peptide concentrations on σ1R-σ2R associations were studied. At the end of the incubation, protein complexes bound to HaloLink-σ2R were obtained by centrifugation, washed three times, solubilized in 2× Laemmli buffer containing β-mercaptoethanol, resolved by SDS-PAGE, and analyzed by Western blotting (for more details, see Section 4). This protocol was also used to assess the effect of ligands on (B) σ1R-NR1 C1 and (C) σ1R-BiP associations. Data were compared to that of the control, which was obtained in the absence of ligands. (A–C) Data are the mean ± SD, n = 3. (D) The β-End 1–31 structural models were predicted by Novafold (DNASTAR Lasergene protein v.17, Inc., Madison, WI, USA). Ribbon model: The 3D structure, charge distribution and hydrophobicity map of β-End 1–31 are shown. Positive charges are shown in red and negative charges in blue. Polar surfaces are shown in yellow, and nonpolar surfaces are shown in orange. Linear model: the opioid (1–5) and flexible region (8–11) sequences are shown in green and orange, respectively, and the amphiphilic helix (15–25) is shown in pink.\nThe recombinant σ1R (100 nM) was incubated either with Haloprotein (negative control) or together with the immobilized σ2R, NR1 C0-C1-C2 or BiP proteins in 300 µL of a buffer containing 50 mM Tris-HCl (pH 7.4) and 0.2% CHAPS in the presence of 2.5 mM CaCl2 for 30 min at RT. After removal of the unbound σ1R, the agarose-attached complexes were incubated for 30 min with rotation at RT in the presence of increasing concentrations of the ligands in a final reaction volume of 300 µL [50 mM Tris-HCl (pH 7.4), 2.5 mM CaCl2 and 0.2% CHAPS]. Ligands were usually dissolved in aqueous solutions; however, when an organic solvent such as DMSO was required to incorporate, e.g., pregnenolone sulfate, the solvent remained below 1% in the assay buffer. Agarose pellets containing the bound proteins were obtained by centrifugation, washed and resuspended thrice in the presence of 2.5 mM CaCl2, solubilized in 2× Laemmli buffer plus β-mercaptoethanol, and analyzed by Western blotting.\nBecause all the assays were performed with recombinant proteins, the immune signals provided a single band of the expected size, which was used for the subsequent densitometry analysis. Accordingly, no other regions of the blots provided information and were routinely excluded from the analysis.\nFigure S8. Effect of the physiological and nonphysiological sequences of β-End 1-31 and classical σ1R ligands on BiP-σ1R, σ2R-σ1R and NR1 C1-σ1R associations . […]\nD) Agarose-NR1 C1 loaded with […]\nσ1Rs were incubated in the absence (control) and with nonphysiological derivatives of β-End 1-31. A-D) The σ1Rs that remained attached to the agarose complexes were evaluated by Western blotting. The […]\n(1 picture or pasted object on this page, not shown here)\nFigure S9. Effect of σ1R agonist/antagonist ligands on σ1R-NR1 C1 associations. Θ-Agarose-NR1 C1 was loaded with recombinant σ1Rs. After unbound σ1R proteins were removed, the complexes were incubated with (A) 1 nM β-End 1-31, (B) αN-acetyl β-End 1-31, (C-D) β-End 28-31 in the absence (black columns) and presence of (A) 10 nM or (B-D) increasing concentrations of competing σ1R ligands as indicated. The σ1Rs that remained attached to the Θ-σ2Rs were evaluated by Western blotting. The […]\nProg is progesterone; PregSulfate is pregnenolone sulfate; Nac is […]"}, "σ1R-σ2R": {"molecular_target": "σ1R-σ2R (Mus musculus, UniProt O55242)", "sequence (O55242 whole entry)": "as above", "assay": "σ1R/σ2R coprecipitation from CHO cells cotransfected with cMyc-σ1R and HA-σ2R", "type": "cell-based, Chinese hamster ovary (CHO) cells", "parameters": "Full-length sigma receptors were subcloned in frame; expressed in transfected cells; host or cells: CHO cells", "conditions": "peptides 1 nM, PRE084, S1RA and BD1047 100 nM; 30 min in serum-free medium", "experimental": "Effect of β-End 1–31 and ^αN-acetyl derivative. (A) Single-wavelength and merged images of CHO cells cotransfected with cMyc-σ1R and HA-σ2R. The cells were fixed 48 h after transfection and analyzed by confocal laser scanning microscopy. Transient expression of proteins within the transfected cells was detected with anti-cMyc (green) and anti-HA (red) antibodies (original magnification 10×). […] Scale bar: 30 µm. (B) Nuclei stained with DAPI (blue). (C–F) Single-wavelength and merged images are enlargements of individual cells. Scale bar: 5 µm. Lower panels: (G) Immunoprecipitation (IP) of tagged sigma receptor types from cotransfected CHO cells. […] Representative blots are shown.\nCHO cells were cultured in modified Eagle’s medium/nutrient mixture F-12 (DMEM/F12) supplemented with GlutaMax (#31331028, ThermoFisher, Spain), 10% foetal bovine serum (#10500064, ThermoFisher), 100 IU/mL penicillin and 100 μg/mL streptomycin (#15140148, ThermoFisher) at 37 °C in a humidified 5% CO2 incubator as described previously. Full-length sigma receptors were subcloned in frame into the pSF-CMV-Puro-NH2-CMyc N-terminal tag (σ1R, #OGS3214, Merck-Sigma) and pSF-CMV-Puro-NH2-HA N-terminal tag (σ2R, #OGS1500, Merck-Sigma) mammalian plasmids using standard cloning strategies. CHO cells were seeded on 12-well plates at a concentration of 0.35 × 10^6 cells per well, grown in Opti-MEM™ I Reduced Serum Medium (#31985070, ThermoFisher) to 70–80% confluence, transfected using Lipofectamine 2000 (#11668030, Invitrogen) and incubated for 24 h prior to testing for transgene expression. For all experiments, the culture medium was replaced with serum-free medium before the addition of sigma ligands and incubated for 30 min. Cells were then harvested and cellular extracts were prepared for immunoprecipitation analysis. Receptors were detected by Western blot analysis using an antibody that recognizes either tag: Myc-tag (#MA1 21316 BTIN, Invitrogen), HA-tag (#26183-BTIN, Invitrogen)."}, "MOR": {"test_system": "MOR", "sequence (P42866 whole entry)": "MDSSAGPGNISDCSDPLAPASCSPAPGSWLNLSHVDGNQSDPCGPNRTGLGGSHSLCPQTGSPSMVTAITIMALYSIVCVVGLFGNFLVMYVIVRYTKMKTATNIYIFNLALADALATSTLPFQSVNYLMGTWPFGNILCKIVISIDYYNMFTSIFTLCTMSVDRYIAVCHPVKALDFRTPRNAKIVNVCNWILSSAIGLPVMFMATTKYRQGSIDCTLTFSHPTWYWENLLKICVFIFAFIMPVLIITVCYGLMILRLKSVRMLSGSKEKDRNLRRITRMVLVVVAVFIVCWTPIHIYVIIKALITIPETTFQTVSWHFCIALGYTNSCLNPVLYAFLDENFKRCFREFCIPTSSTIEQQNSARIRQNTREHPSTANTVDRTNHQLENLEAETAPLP", "assay": "Coprecipitation of G proteins, σ2Rs and NMDAR NR1 C1 with PAG MORs after icv injection", "type": "in vivo, mouse", "conditions": "60 min post-treatment; for effect on association of PAG MOR with G proteins, σ2Rs and NR1 C1: icv: β-End 1–31 5 pmol, ^αN-acetyl β-End 1–31 5 pmol, S1RA 3 nmol, n = 3", "description": "The data from σ2R^−/− solubilized cortical tissue were referred to the wild-type control (arbitrary value of 1). […] For each Gα subunit and the σ1R, the immunosignals in the absence of the acetylated peptide were the controls (C, value of 1). […] (D) Coprecipitation of G proteins with MORs in CD1 wild-type and σ2R^−/− mice. MORs were immunoprecipitated (IP) from mouse SBM. Coprecipitated proteins were detached from MORs and analyzed by Western blotting with antibodies directed to Gαi2, Gαo, Gαz and MOR proteins. (E) Effect of in vivo icv injection of β-End 1–31, ^αN-acetyl β-End 1–31 and S1RA on the association of PAG MORs with G proteins, σ2Rs and NMDAR NR1 C1 subunits. β-End 1–31 (5 pmol), ^αN-acetyl β-End 1–31 (5 pmol) and S1RA (3 nmol and 10 nmol) were icv-injected, and the mice were sacrificed 60 min post-treatment to obtain the PAG synaptosomal fraction. The MORs were immunoprecipitated from the solubilized membrane preparations, and the coprecipitated target proteins were analyzed by Western blotting. […] Representative blots are shown. The immunosignal provided by the light chain of the affinity-purified anti MOR IgGs was used as SDS-PAGE loading control. […] Data were analyzed by pairwise Holm–Sidak multiple comparison tests following ANOVA: p < 0.05, 1-β > 0.80.\nIn immunoprecipitation studies, the cerebral cortices or periaqueductal grey matter (PAG) from 4–6 mice are typically pooled, as described previously [89]. […] The software automatically calculates the optimal exposure time for each of the areas specified to provide the strongest possible signal for accurate quantification of the sample. Protein immunosignals were measured using the area of the strongest signal for each group of samples studied (average optical density of the pixels within the object area/mm^2; AlphaEase FC software); the grey values of the means were then normalized within the 8 bit/256 grey levels [(256 − computed value)/computed value]."}},
  "data": [
    {"molecule": "β-End 1–27: β-End 1–31 derivative without 4 C-terminal residues (YGGFMTSEKSQTPLVTLFKNAIIKNAY; Beta-endorphin; UniProt P01189 237-263, looked up, fragment)", "values": [
      {"measurement": "effect on σ1R-NR1 C1 association", "setting": "σ1R-NR1 C1", "value": "weak or no effects"}
    ]},
    {"molecule": "YKKGE [β-End 27–31, C-terminal pentapeptide of β-End 1–31]", "values": [
      {"measurement": "effect on σ1R-NR1 C1 association", "setting": "σ1R-NR1 C1", "value": "increased σ1R-NR1 C1"}
    ]},
    {"molecule": "COC(=O)[C@]1(c2ccc(C)cc2)C[C@@H]1CN1CCC(O)(c2ccccc2)CC1", "note": "[PPCC, (1R,2S/1S,2R)-2-[4-hydroxy-4-phenylpiperidin-1-yl)methyl]-1-(4-methylphenyl) cyclopropanecarboxylate, reference compound]", "values": [
      {"measurement": "effect on σ1R-NR1 C1 association", "setting": "σ1R-NR1 C1", "value": "increased σ1R-NR1 C1 complexes"}
    ]},
    {"molecule": "Cl.O=C(OCCN1CCOCC1)C1(c2ccccc2)CCCCC1", "note": "[PRE084, 2-(4-morpholinethyl)-1-phenylcyclohexanecarboxylate hydrochloride, reference compound]", "values": [
      {"measurement": "effect on σ1R-NR1 C1 association", "setting": "σ1R-NR1 C1", "value": "increased σ1R-NR1 C1 complexes"},
      {"measurement": "effect on σ1R-σ2R association in CHO cells", "setting": "σ1R-σ2R", "value": "strongly decreased the σ1R-σ2R association"}
    ]},
    {"molecule": "^αN-acetyl β-End 1–31: β-End 1–31 acetylated at N terminal Y1, α position", "values": [
      {"measurement": "effect on σ1R-NR1 C1 association", "setting": "σ1R-NR1 C1", "value": "separated σ1Rs from NR1 C1 subunits at pM concentrations"},
      {"measurement": "effect on σ1R-σ2R association in CHO cells", "setting": "σ1R-σ2R", "value": "preserved these protein complexes"},
      {"measurement": "effect on association of PAG MOR with G proteins, σ2Rs and NR1 C1", "setting": "MOR", "value": "slightly reproduced"}
    ]},
    {"molecule": "KKGE [β-End 28–31, C-terminal tetrapeptide of β-End 1–31]", "values": [
      {"measurement": "effect on σ1R-NR1 C1 association", "setting": "σ1R-NR1 C1", "value": "reduced σ1R-NR1 C1 interactions"}
    ]},
    {"molecule": "β-End 6–31: β-End 1–31 lacking the N-terminal met-enkephalin 1–5 sequence (TSEKSQTPLVTLFKNAIIKNAYKKGE; Beta-endorphin; UniProt P01189 242-267, looked up, fragment)", "values": [
      {"measurement": "effect on σ1R-NR1 C1 association", "setting": "σ1R-NR1 C1", "value": "began to separate the complex"}
    ]},
    {"molecule": "Cc1cc(OCCN2CCOCC2)nn1-c1ccc2ccccc2c1", "note": "[S1RA]", "values": [
      {"measurement": "effect on σ1R-NR1 C1 association", "setting": "σ1R-NR1 C1", "value": "did the opposite"},
      {"measurement": "effect on σ1R-σ2R association in CHO cells", "setting": "σ1R-σ2R", "value": "preserved these protein complexes"},
      {"measurement": "effect on association of PAG MOR with G proteins and σ2Rs, 10 nmol", "setting": "MOR; 10 nmol icv", "value": "increased MOR association with Gi2/o and σ2Rs"},
      {"measurement": "effect on association of PAG MOR with G proteins, σ2Rs and NR1 C1", "setting": "MOR", "value": "slightly reproduced"}
    ]},
    {"molecule": "β-End 22–31: nonphysiological C-terminal sequence of β-End 1–31 (IIKNAYKKGE; Beta-endorphin; UniProt P01189 258-267, looked up, fragment)", "values": [
      {"measurement": "effect on σ1R-NR1 C1 association", "setting": "σ1R-NR1 C1", "value": "persisted"}
    ]},
    {"molecule": "Br.Br.CN(C)CCN(C)CCc1ccc(Cl)c(Cl)c1", "note": "[BD1047, N′-[2-(3,4-dichlorophenyl)ethyl]-N,N,N′-trimethylethane-1,2-diamine;dihydrobromide, reference compound]", "values": [
      {"measurement": "effect on σ1R-NR1 C1 association", "setting": "σ1R-NR1 C1", "value": "did the opposite"},
      {"measurement": "effect on σ1R-σ2R association in CHO cells", "setting": "σ1R-σ2R", "value": "preserved these protein complexes"}
    ]},
    {"molecule": "β-End 1–26: β-End 1–31 derivative without 5 C-terminal residues (YGGFMTSEKSQTPLVTLFKNAIIKNA; Beta-endorphin; UniProt P01189 237-262, looked up, fragment)", "values": [
      {"measurement": "effect on σ1R-NR1 C1 association", "setting": "σ1R-NR1 C1", "value": "promoted σ1R-NR1 C1 associations at pM concentrations"}
    ]}
  ]
}
